Source: ChEMBL document CHEMBL5518203, “Rational Design of Benzobisheterocycle Metallo-β-Lactamase Inhibitors: A Tricyclic Scaffold Enhances Potency against Target Enzymes” (J Med Chem, 2024)
In brackets after ≈: the same amount, converted by molar mass. Activity calls are given as the source filed them. The rule behind the calls is not given here.

Key:
[1] = Inhibition of his6-tagged L1 (unknown origin) expressed in Escherichia coli BL21-DE3 incubated for 16 hrs; design: species or system Enzyme inhibition
[2] = target: Metallo-beta-lactamase type 2 (Bacteria, UniProt C7C422); assay: Inhibition of his6-tagged NDM-1 (unknown origin) expressed in Escherichia coli BL21-DE3 incubated for 16 hrs
[3] = Stability in human plasma assessed as half life by HPLC analysis; type: ADME, cell-free
[4] = Inhibition of his6-tagged SFH-1 (unknown origin) expressed in Escherichia coli BL21-DE3 incubated for 16 hrs; design: species or system Enzyme
[5] = Inhibition of his6-tagged IMP-1 (unknown origin) expressed in Escherichia coli BL21-DE3 incubated for 16 hrs; design: species or system Bacteria
[6] = Inhibition of his6-tagged VIM-2 (unknown origin) expressed in Escherichia coli BL21-DE3 incubated for 16 hrs
[7] = test system: Klebsiella pneumoniae; assay: Potentiation of meropenem induced antibacterial activity against Klebsiella pneumoniae 6907 expressing VIM-2 assessed as meropenem MIC by CLSI based broth microdilution method; type: functional
[8] = test system: Klebsiella pneumoniae; assay: Potentiation of meropenem induced antibacterial activity against Klebsiella pneumoniae 1.41 expressing NDM-1 assessed as meropenem MIC by CLSI based broth microdilution method; type: functional
[9] = test system: Escherichia coli; assay: Potentiation of meropenem induced antibacterial activity against Escherichia coli 3.68 expressing NDM-1 assessed as meropenem MIC by CLSI based broth microdilution method; type: functional
[10] = test system: Enterobacter cloacae; assay: Potentiation of meropenem induced antibacterial activity against Enterobacter cloacae 1.28 expressing NDM-1 assessed as meropenem MIC by CLSI based broth microdilution method; type: functional
[11] = test system: Enterobacter cloacae; assay: Potentiation of meropenem induced antibacterial activity against Enterobacter cloacae 6.31 expressing NDM-1 assessed as meropenem MIC by CLSI based broth microdilution method; type: functional
[12] = test system: L929; assay: Cytotoxicity against mouse L929 cells assessed as reduction in cell viability at 100 microg/ml incubated for 24 hrs by MTT assay; type: toxicity, cell-based; conditions: l929, 24 h
[13] = test system: Klebsiella pneumoniae; assay: Potentiation of meropenem induced antibacterial activity against Klebsiella pneumoniae LC82 expressing IMP-13 assessed as meropenem MIC by CLSI based broth microdilution method; type: functional
[14] = target: Metallo-beta-lactamase type 2 (Bacteria) (UniProt C7C422); assay: Inhibition of full length NDM-1 (unknown origin) expressed in Escherichia DH5alpha at 100 microg/ml measured at 1 to 5 hrs; conditions: dose 100.0 µg/ml, time 1-5 hrs
[15] = test system: Providencia rettgeri; assay: Potentiation of meropenem induced antibacterial activity against Providencia rettgeri 1.27 expressing NDM-1 assessed as meropenem MIC by CLSI based broth microdilution method; type: functional
[16] = test system: Klebsiella pneumoniae; assay: Potentiation of meropenem induced antibacterial activity against Klebsiella pneumoniae 1.37 expressing NDM-1 assessed as meropenem MIC by CLSI based broth microdilution method; type: functional
[17] = test system: Klebsiella pneumoniae; assay: Potentiation of meropenem induced antibacterial activity against Klebsiella pneumoniae 7.15 expressing NDM-1 assessed as meropenem MIC by CLSI based broth microdilution method; type: functional
[18] = test system: Klebsiella pneumoniae; assay: Potentiation of meropenem induced antibacterial activity against Klebsiella pneumoniae 5639 expressing VIM-24 assessed as meropenem MIC by CLSI based broth microdilution method; type: functional
[19] = test system: Klebsiella pneumoniae; assay: Antibacterial activity against Klebsiella pneumoniae LC82 assessed as inhibition of bacterial growth by CLSI based broth microdilution method; type: functional
[20] = test system: Klebsiella pneumoniae; assay: Antibacterial activity against Klebsiella pneumoniae 5639 assessed as inhibition of bacterial growth by CLSI based broth microdilution method; type: functional
[21] = test system: Providencia rettgeri; assay: Antibacterial activity against Providencia rettgeri 1.27 assessed as inhibition of bacterial growth by CLSI based broth microdilution method; type: functional
[22] = test system: Klebsiella pneumoniae; assay: Antibacterial activity against Klebsiella pneumoniae 6907 assessed as inhibition of bacterial growth by CLSI based broth microdilution method; type: functional
[23] = test system: Klebsiella pneumoniae; assay: Antibacterial activity against Klebsiella pneumoniae 1.41 assessed as inhibition of bacterial growth by CLSI based broth microdilution method; type: functional
[24] = test system: Enterobacter cloacae; assay: Antibacterial activity against Enterobacter cloacae 1.28 assessed as inhibition of bacterial growth by CLSI based broth microdilution method; type: functional
[25] = test system: Klebsiella pneumoniae; assay: Antibacterial activity against Klebsiella pneumoniae 7.15 assessed as inhibition of bacterial growth by CLSI based broth microdilution method; type: functional
[26] = test system: Enterobacter cloacae; assay: Antibacterial activity against Enterobacter cloacae 6.31 assessed as inhibition of bacterial growth by CLSI based broth microdilution method; type: functional
[27] = test system: Klebsiella pneumoniae; assay: Antibacterial activity against Klebsiella pneumoniae 1.37 assessed as inhibition of bacterial growth by CLSI based broth microdilution method; type: functional

Metallo-beta-lactamase type 2, sequence (C7C422 whole entry): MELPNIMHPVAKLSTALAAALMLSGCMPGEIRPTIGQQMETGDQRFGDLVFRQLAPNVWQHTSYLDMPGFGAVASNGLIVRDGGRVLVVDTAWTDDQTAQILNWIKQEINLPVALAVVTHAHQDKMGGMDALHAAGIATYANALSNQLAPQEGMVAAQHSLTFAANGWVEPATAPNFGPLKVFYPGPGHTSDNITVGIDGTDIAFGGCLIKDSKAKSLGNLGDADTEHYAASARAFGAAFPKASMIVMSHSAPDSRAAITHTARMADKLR
Metallo-beta-lactamase type 2 (Bacteria), sequence (C7C422 whole entry): as above

O=C(O)[C@@H]1CS[C@H]2CS[C@H](CS)N21
IC50 ([1]; read-out: IC50): 22 µM | IC50 [2]: 13 µM | t1/2 [3]: 0.383 h | IC50 ([4]; read-out: IC50): 0.79 µM | IC50 ([5]; read-out: IC50): 17.3 µM | IC50 ([6]; read-out: IC50): 8.5 µM

CCOC(=O)[C@@H]1CS[C@H]2CS[C@H](CS)N21
IC50 ([1]; read-out: IC50): 6.9 µM | IC50 [2]: 2.7 µM | IC50 ([4]; read-out: IC50): 5.5 µM | IC50 ([5]; read-out: IC50): 0.26 µM | IC50 ([6]; read-out: IC50): 0.17 µM

NCCOC(=O)[C@@H]1CS[C@H]2CS[C@H](CS)N21
IC50 ([1]; read-out: IC50): 58 µM | IC50 [2]: 53 µM | IC50 [4]: Not Active

CCOC(=O)[C@]12CS[C@H](CS)N1[C@H](C(=O)O)CS2
IC50 [1]: Not Active | IC50 [2]: 13 µM | IC50 [4]: Not Active | IC50 [5]: Not Active | IC50 [6]: Not Active

O=C(NCc1ccccc1)[C@@H]1CS[C@H]2CS[C@H](CS)N21
IC50 ([1]; read-out: IC50): 8.9 µM | IC50 [2]: 7.7 µM | IC50 [4]: Not Active

Nc1nc(COC(=O)[C@@H]2CS[C@H]3CS[C@H](CS)N32)cs1
IC50 ([1]; read-out: IC50): 30 µM | IC50 [2]: 27 µM | IC50 [4]: Not Active

COc1ccc(CNC(=O)[C@@H]2CS[C@H]3CS[C@H](CS)N32)cc1
IC50 ([1]; read-out: IC50): 24 µM | IC50 [2]: 52 µM | IC50 [4]: Not Active

O=C(O)[C@@H]1CS[C@H]2CS[C@H](CCS)N21
IC50 ([1]; read-out: IC50): 12 µM | IC50 [2]: 3.1 µM | IC50 [4]: Not Active | IC50 [5]: Not Active | IC50 [6]: Not Active

O=C(Nc1ccccc1)[C@@H]1CS[C@H]2CS[C@H](CS)N21
IC50 ([1]; read-out: IC50): 15 µM | IC50 [2]: 20 µM | IC50 [4]: Not Active

CC(C)(C)OC(=O)NCCOC(=O)[C@@H]1CS[C@H]2CS[C@H](CS)N21
IC50 ([1]; read-out: IC50): 5.4 µM | IC50 [2]: 7.9 µM | IC50 [4]: Not Active

Nc1ccccc1NC(=O)[C@@H]1CS[C@H]2CS[C@H](CS)N21
IC50 ([1]; read-out: IC50): 32 µM | IC50 [2]: 29 µM | IC50 [4]: Not Active

SCC[C@H]1SC[C@@H]2SCCN21 (racemic)
IC50 ([1]; read-out: IC50): 7.8 µM | IC50 [2]: 8.3 µM | IC50 ([4]; read-out: IC50): 55 µM | IC50 ([5]; read-out: IC50): 5.8 µM | IC50 ([6]; read-out: IC50): 1.2 µM

SC[C@H]1SC[C@@H]2SCCN21 (racemic)
IC50 ([1]; read-out: IC50): 4.9 µM | IC50 [2]: 1.2 µM | IC50 ([4]; read-out: IC50): 7.5 µM | IC50 ([5]; read-out: IC50): 1.09 µM | IC50 ([6]; read-out: IC50): 0.88 µM

SC[C@H]1SC[C@@H]2Sc3ccccc3N21 (racemic)
MIC [7]: 0.125 µg/mL | IC50 ([1]; read-out: IC50): 0.67 µM | IC50 [2]: 0.29 µM | t1/2 [3]: 2.62 h | MIC [8]: 8 µg/mL | MIC [9]: 32 µg/mL | IC50 ([4]; read-out: IC50): 1.4 µM | MIC [10]: 8 µg/mL | MIC [11]: 16 µg/mL | Activity ([12]; dose 100 µg/ml): Non-Toxic | MIC [13]: 0.125 µg/mL | inhibition [14]: Active | MIC [15]: 32 µg/mL | IC50 ([5]; read-out: IC50): 0.088 µM | IC50 ([6]; read-out: IC50): 0.063 µM | MIC [16]: 16 µg/mL | MIC [17]: 32 µg/mL | MIC [18]: 0.125 µg/mL

SC[C@H]1SC[C@@H]2Nc3ccccc3N21 (relative stereo)
IC50 ([1]; read-out: IC50): 0.62 µM | t1/2 [3]: 2.45 h | IC50 ([4]; read-out: IC50): 3.7 µM | Activity ([12]; at 100 µg/mL): 20% | IC50 ([5]; read-out: IC50): 1.01 µM | IC50 ([6]; read-out: IC50): 1.4 µM

C[C@@H](O)[C@H]1C(=O)N2C(C(=O)O)=C(S[C@@H]3CN[C@H](C(=O)N(C)C)C3)[C@H](C)[C@H]12 [MEROPENEM]
MIC [19]: 1 µg/mL (≈ 2.61 µM) | MIC [20]: 4 µg/mL (≈ 10.4 µM) | MIC [21]: 128 µg/mL (≈ 334 µM) | MIC [22]: 8 µg/mL (≈ 20.9 µM) | MIC [23]: 128 µg/mL (≈ 334 µM) | MIC [24]: 128 µg/mL (≈ 334 µM) | MIC [25]: 128 µg/mL (≈ 334 µM) | MIC [26]: 54 µg/mL (≈ 141 µM) | MIC [27]: 64 µg/mL (≈ 167 µM)
